From BindingDB's records for doi:10.1021/bi701954p (University of Maryland Biotechnology Institute, 2008)
Where “and” joins values, the source holds several entries; their conditions need not be identical. Equal values may be shown once.

Biological target: T1, Oxaloacetate decarboxylase (Pseudomonas aeruginosa (strain ATCC 15692 / DSM 22644 / CIP 104116 / JCM 14847 / LMG 12228 / 1C / PRS 101 / PAO1), UniProt Q9HUU1)
T1 sequence (Q9HUU1 whole entry): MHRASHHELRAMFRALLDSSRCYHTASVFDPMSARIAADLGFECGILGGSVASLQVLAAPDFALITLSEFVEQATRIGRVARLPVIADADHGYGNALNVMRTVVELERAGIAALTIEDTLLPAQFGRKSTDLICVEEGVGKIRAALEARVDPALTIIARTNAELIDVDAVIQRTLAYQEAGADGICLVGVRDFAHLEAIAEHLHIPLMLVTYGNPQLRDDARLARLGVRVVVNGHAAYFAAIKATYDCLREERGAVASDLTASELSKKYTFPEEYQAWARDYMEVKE
Experiment: Inhibition Assay
Excerpt: Competitive inhibition constant determined for PA4872 catalyzed oxaloacetate decarboxylation.

CC(=O)CC(=O)C(=O)O [Acetopyruvate]
Ki: 1090 µM and 560 µM

O=C(O)C(=O)O
Ki: 43 µM

O=C(O)C(O)(O)C(F)(F)C(=O)O [3,3-Difluoroxaloacetate]
Ki: 450 µM

O=C(O)C(=O)CP(=O)(O)O [Phosphonopyruvate]
Ki: 3000 µM

CC(=O)C(=O)O [Pyruvate]
Ki: 7200 µM

CCCC(=O)C(=O)O [alpha-ketovalerate]
Ki: 6700 µM and 3200 µM
